Where “and” joins values, the source holds several entries; their conditions need not be identical. Identical values can stand only once.
Test system: BDF1 mice, Adenocarcinoma 755 s.c., tumor weight T/C
Test: NCI In Vivo Anticancer Drug Screen. Data for tumor model Adenocarcinoma 755 (subcutaneous) in B6D2F1 (BDF1) mice
Conditions: endpoint: mean tumor weight, higher = larger tumour
In short: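 Transplantable tumor implanted; mice dosed with compound or vehicle; survival or tumor size recorded; ratio of treated to vehicle control reported.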

[1] = dose: 1.0 mg/kg/injection, schedule: Q01DX011 (ip), vehicle: carboxymethylcellulose (CMC)
[2] = dose: 6.0 mg/kg/injection, schedule: Q01DX011 (ip), vehicle: carboxymethylcellulose (CMC)
[3] = dose: 25.0 mg/kg/injection, schedule: Q01DX011 (ip), vehicle: carboxymethylcellulose (CMC)
[4] = dose: 50.0 mg/kg/injection, schedule: Q01DX011 (ip), vehicle: carboxymethylcellulose (CMC)
[5] = dose: 100.0 mg/kg/injection, schedule: Q01DX011 (ip), vehicle: carboxymethylcellulose (CMC)
[6] = dose: 25.0 mg/kg/injection, schedule: Q01DX011 (ip), vehicle: methylcellulose (MC)

S=c1nc[nH]c2c1ncn2C1CCCO1 (centres undefined)
T/C (dose: 0.5 mg/kg/injection, schedule: Q01DX011 (ip), vehicle: carboxymethylcellulose (CMC)): 26 % of control | T/C [1]: 75 % of control | T/C (dose: 1.5 mg/kg/injection, schedule: Q01DX011 (ip), vehicle: carboxymethylcellulose (CMC)): 47 % of control | T/C [2]: 11 % of control | T/C (dose: 12.0 mg/kg/injection, schedule: Q01DX011 (ip), vehicle: carboxymethylcellulose (CMC)): 6 % of control | T/C [3]: 4 % of control | T/C [4]: 6 % of control | T/C [5]: 6 % of control

CN(Cc1ccccc1)c1ncnc2[nH]ncc12
T/C (dose: 12.5 mg/kg/injection, schedule: Q01DX011 (ip), vehicle: methylcellulose (MC)): 42 % of control | T/C [6]: 62 % of control | T/C (dose: 50.0 mg/kg/injection, schedule: Q01DX011 (ip), vehicle: methylcellulose (MC)): 10 % of control | T/C (dose: 100.0 mg/kg/injection, schedule: Q01DX011 (ip), vehicle: methylcellulose (MC)): 2 % of control

Clc1ccccc1CSc1ncnc2nc[nH]c12
T/C (dose: 5.0 mg/kg/injection, schedule: Q01DX011 (ip), vehicle: other): 11 % of control | T/C (dose: 10.0 mg/kg/injection, schedule: Q01DX011 (ip), vehicle: other): 2 % of control | T/C (dose: 31.0 mg/kg/injection, schedule: Q01DX011 (ip), vehicle: other): 12 % of control | T/C (dose: 62.0 mg/kg/injection, schedule: Q01DX011 (ip), vehicle: other): 3 % of control | T/C (dose: 125.0 mg/kg/injection, schedule: Q01DX011 (ip), vehicle: other): 3 % of control

CO[C@@H]([CH2][Hg][S]C#N)[C@@H]([CH2][Hg][S]C#N)OC
T/C (dose: 9.5 mg/kg/injection, schedule: Q01DX011 (ip), vehicle: carboxymethylcellulose (CMC)): 56 % of control | T/C (dose: 18.75 mg/kg/injection, schedule: Q01DX011 (ip), vehicle: carboxymethylcellulose (CMC)): 57 % of control

CC(=O)OCC1OC(n2cnc3c(Cl)nc(Cl)nc32)C(OC(C)=O)C1OC(C)=O (centres undefined)
T/C (dose: 30.0 mg/kg/injection, schedule: Q01DX011 (ip), vehicle: carboxymethylcellulose (CMC)): 85 % of control | T/C (dose: 60.0 mg/kg/injection, schedule: Q01DX011 (ip), vehicle: carboxymethylcellulose (CMC)): 92 % of control | T/C (dose: 120.0 mg/kg/injection, schedule: Q01DX011 (ip), vehicle: carboxymethylcellulose (CMC)): 61 % of control | T/C (dose: 240.0 mg/kg/injection, schedule: Q01DX011 (ip), vehicle: carboxymethylcellulose (CMC)): 61 % of control

O=P(N1CCCC1)(N1CC1)N1CC1
T/C (dose: 0.2 mg/kg/injection, schedule: Q01DX011 (ip), vehicle: saline): 94 % of control and 75 % of control | T/C (dose: 0.25 mg/kg/injection, schedule: Q01DX011 (ip), vehicle: carboxymethylcellulose (CMC)): 110 % of control | T/C (dose: 0.5 mg/kg/injection, schedule: Q01DX011 (ip), vehicle: saline): 54 % of control and 79 % of control | T/C [1]: 42 % of control | T/C (dose: 1.0 mg/kg/injection, schedule: Q01DX011 (ip), vehicle: saline): 8 % of control and 21 % of control | T/C (dose: 2.0 mg/kg/injection, schedule: Q01DX011 (ip), vehicle: carboxymethylcellulose (CMC)): 46 % of control | T/C (dose: 2.0 mg/kg/injection, schedule: Q01DX011 (ip), vehicle: saline): 3 % of control | T/C (dose: 4.0 mg/kg/injection, schedule: Q01DX011 (ip), vehicle: carboxymethylcellulose (CMC)): 23 % of control | T/C [2]: 8 % of control | T/C (dose: 8.0 mg/kg/injection, schedule: Q01DX011 (ip), vehicle: carboxymethylcellulose (CMC)): 11 % of control | T/C (dose: 12.0 mg/kg/injection, schedule: Q01DX011 (ip), vehicle: saline): 3 % of control

C[C@H]1C[C@H]2[C@@H]3CC[C@](O)(C(=O)CO)[C@@]3(C)C[C@H](O)[C@]2(F)[C@@]2(C)C=CC(=O)C=C12
T/C (dose: 7.0 mg/kg/injection, schedule: Q01DX011 (sc), vehicle: steriod suspending solution): 39 % of control and 49 % of control | T/C (dose: 30.0 mg/kg/injection, schedule: Q01DX011 (sc), vehicle: steriod suspending solution): 7 % of control and 16 % of control

Clc1ncnc2c1ncn2C1CCCS1 (centres undefined)
T/C [6]: 107 % of control

CCOC(=O)n1cnc2ncnc(SC)c21
T/C (dose: 5.0 mg/kg/injection, schedule: Q01DX011 (ip), vehicle: carboxymethylcellulose (CMC)): 59 % of control | T/C (dose: 10.0 mg/kg/injection, schedule: Q01DX011 (ip), vehicle: carboxymethylcellulose (CMC)): 80 % of control | T/C (dose: 12.5 mg/kg/injection, schedule: Q01DX011 (ip), vehicle: carboxymethylcellulose (CMC)): 48 % of control | T/C [3]: 15 % of control | T/C [4]: 7 % of control | T/C [5]: 5 % of control | T/C (dose: 200.0 mg/kg/injection, schedule: Q01DX011 (ip), vehicle: carboxymethylcellulose (CMC)): 5 % of control
